# Test results published in patent US12527325B2, “Pesticidally active diazine-amide compounds” (SYNGENTA CROP PROTECTION AG, priority 2019, dated 2026).
# Legend:
# Type in all cases: in vivo
# Plutella xylostella [1] = assay: Example B5: Plutella xylostella (Diamond Back Moth); details: 192 h, application rate of 200 ppm, 24-well artificial diet, eggs, 8 days after infestation, read-out: control in at least one of the two categories (mortality or growth inhibition)
# Protocol: Example B5: Plutella xylostella (Diamond Back Moth)
# 24-well microtiter plates with artificial diet were treated with aqueous test solutions prepared from 10′000 ppm DMSO stock solutions by pipetting. After drying, Plutella eggs were pipetted through a plastic stencil onto a gel blotting paper and the plate was closed with it. The samples were assessed for mortality and growth inhibition in comparison to untreated samples 8 days after infestation.
# Chilo suppressalis = assay: Example B4: Chilo suppressalis (Striped Rice Stemborer); details: 144 h, application rate of 200 ppm, artificial diet, L2 larvae, 6 days after infestation, read-out: control in at least one of the three categories (mortality, anti-feedant or growth inhibition)
# Protocol: Example B4: Chilo suppressalis (Striped Rice Stemborer)
# 24-well microtiter plates with artificial diet were treated with aqueous test solutions prepared from 10′000 ppm DMSO stock solutions by pipetting. After drying, the plates were infested with L2 larvae (6-8 per well). The samples were assessed for mortality, anti-feeding effect, and growth inhibition in comparison to untreated samples 6 days after infestation. Control of Chilo suppressalis by a test sample is given when at least one of the categories mortality, anti-feedant effect, and growth inhibition is higher than the untreated sample.
# Spodoptera littoralis = assay: Example B9: Spodoptera littoralis (Egyptian Cotton Leaf Worm), cotton leaf disc spray; details: foliar, 72 h, application rate of 200 ppm, sprayed cotton leaf discs, L1 larvae, 3 days after infestation, read-out: control in at least one of the three categories (mortality, anti-feedant or growth inhibition)
# Diabrotica balteata = assay: Example B1: Diabrotica balteata (Corn Root Worm); details: 96 h, application rate of 200 ppm, sprayed maize sprouts, L2 larvae, 4 days after infestation, read-out: control in at least one of the two categories (mortality or growth inhibition)
# Protocol: Example B1: Diabrotica balteata (Corn Root Worm)
# Maize sprouts placed onto an agar layer in 24-well microtiter plates were treated with aqueous test solutions prepared from 10′000 ppm DMSO stock solutions by spraying. After drying, the plates were infested with L2 larvae (6 to 10 per well). The samples were assessed for mortality and growth inhibition in comparison to untreated samples 4 days after infestation.
# Plutella xylostella [2] = assay: Example B12: Plutella xylostella (Diamondback Moth), 96-well artificial diet; details: 216 h, application rate of 500 ppm, eggs, 9 days after infestation
# Protocol: Example B12: Plutella xylostella (Diamondback Moth)
# 96-well microtiter plates containing artificial diet were treated with aqueous test solutions, prepared from 10′000 ppm DMSO stock solutions, by a liquid handling robot. After drying, eggs (˜30 per well) were infested onto a netted lid which was suspended above the diet. The eggs hatch and L1 larvae move down to the diet. The samples were assessed for mortality 9 days after infestation.
SMILES,percent control (mortality or growth inhibition) at 200 ppm (Plutella xylostella [1]) [%],"percent control (mortality, anti-feedant effect or growth inhibition) at 200 ppm (Chilo suppressalis) [%]","percent control (mortality, anti-feedant effect or growth inhibition) at 200 ppm (Spodoptera littoralis) [%]",percent control (mortality or growth inhibition) at 200 ppm (Diabrotica balteata) [%],mortality at 500 ppm (Plutella xylostella [2]) [%]
"Cc1cnc(-c2nccnc2C(C)NC(=O)c2cc(C(F)(F)F)cc(C3(C#N)CC3)c2)nc1 (stereo not shown) [P54, 3-(1-cyanocyclopropyl)-N-[1-[3-(5-methylpyrimidin-2-yl)pyrazin-2-yl]ethyl]-5-(trifluoromethyl)benzamide]",≥ 80,≥ 80,≥ 80,,
"Cc1cnc(-c2nccnc2C(C)NC(=O)c2cc(C(F)(F)F)cc(C(F)(F)C3CC3)c2)nc1 (stereo not shown) [P52, 3-[cyclopropyl (difluoro)methyl]-N-[1-[3-(5-methylpyrimidin-2-yl)pyrazin-2-yl]ethyl]-5-(trifluoromethyl)benzamide]",≥ 80,,≥ 80,,
"CC(NC(=O)c1cc(C(F)(F)F)cc(C(C)(C)C#N)c1)c1nccnc1-c1ccccn1 (stereo not shown) [P7, 3-(1-cyano-1-methyl-ethyl)-N-[1-[3-(2-pyridyl)pyrazin-2-yl]ethyl]-5-(trifluoromethyl) benzamide]",≥ 80,≥ 80,≥ 80,≥ 80,
"CC(NC(=O)c1cc(C(F)(F)F)cc(S(=O)(=O)C(F)(F)F)c1)c1nccnc1-c1ncc(Br)cn1 (stereo not shown) [P57, N-[1-[3-(5-bromopyrimidin-2-yl)pyrazin-2-yl]ethyl]-3-(trifluoromethyl)-5-(trifluoromethylsulfonyl) benzamide]",≥ 80,≥ 80,≥ 80,≥ 80,
"CC(NC(=O)c1cc(C(F)(F)F)cc(C(C)(C)C#N)c1)c1nccnc1-c1ccc(F)cn1 (stereo not shown) [P5, 3-(1-cyano-1-methyl-ethyl)-N-[1-[3-(5-fluoro-2-pyridyl)pyrazin-2-yl]ethyl]-5-(trifluoromethyl) benzamide]",≥ 80,,,,
"CC(NC(=O)c1cc(C(F)(F)F)cc(C(C)(C)C#N)c1)c1nccnc1-c1ncc(C2CC2)cn1 (stereo not shown) [P6, 3-(1-cyano-1-methyl-ethyl)-N-[1-[3-(5-cyclopropylpyrimidin-2-yl)pyrazin-2-yl]ethyl]-5-(trifluoromethyl) benzamide]",≥ 80,≥ 80,≥ 80,≥ 80,
"CC(NC(=O)c1cc(C(F)(F)F)cc(S(=O)(=O)C(F)(F)F)c1)c1nccnc1-c1ccc(Cl)cn1 (stereo not shown) [P15, N-[1-[3-(5-chloro-2-pyridyl)pyrazin-2-yl]ethyl]-3-(trifluoromethyl)-5-(trifluoromethylsulfonyl) benzamide]",,,,,≥ 80
"CC(NC(=O)c1cc(C(F)(F)F)cc(C(F)(F)C2CC2)c1)c1nccnc1-c1ccc(Cl)cn1 (stereo not shown) [P4, N-[1-[3-(5-chloro-2-pyridyl)pyrazin-2-yl]ethyl]-3-[cyclopropyl(difluoro)methyl]-5-(trifluoromethyl) benzamide]",≥ 80,≥ 80,≥ 80,,
"CC(NC(=O)c1cc(C(F)(F)F)cc(C(C)(C)C#N)c1)c1nccnc1-c1ccc(Br)cn1 (stereo not shown) [P9, N-[1-[3-(5-bromo-2-pyridyl)pyrazin-2-yl]ethyl]-3-(1-cyano-1-methyl-ethyl)-5-(trifluoromethyl) benzamide]",≥ 80,≥ 80,≥ 80,≥ 80,
"CC(NC(=O)c1cc(C(F)(F)F)cc(C(F)(F)C2CC2)c1)c1nccnc1-c1ncc(Br)cn1 (stereo not shown) [P53, N-[1-[3-(5-bromopyrimidin-2-yl)pyrazin-2-yl]ethyl]-3-[cyclopropyl(difluoro)methyl]-5-(trifluoromethyl)benzamide]",≥ 80,≥ 80,≥ 80,≥ 80,
"Cc1cnc(-c2nccnc2C(C)NC(=O)c2cc(C(F)(F)F)cc(S(=O)(=O)C(F)(F)F)c2)nc1 (stereo not shown) [P56, N-[1-[3-(5-methylpyrimidin-2-yl)pyrazin-2-yl]ethyl]-3-(trifluoromethyl)-5-(trifluoromethylsulfonyl) benzamide]",≥ 80,≥ 80,≥ 80,,
"CC(NC(=O)c1cc(C(F)(F)F)cc(C(C)(C)C#N)c1)c1nccnc1-c1ncc(Br)cn1 (stereo not shown) [P49, N-[1-[3-(5-bromopyrimidin-2-yl)pyrazin-2-yl]ethyl]-3-(1-cyano-1-methyl-ethyl)-5-(trifluoromethyl)benzamide]",≥ 80,≥ 80,≥ 80,≥ 80,
"COC1(c2cc(C(=O)NC(C)c3nccnc3-c3ncccn3)cc(C(F)(F)F)c2)CC1 (stereo not shown) [P47, 3-(1-methoxycyclopropyl)-N-[1-(3-pyrimidin-2-ylpyrazin-2-yl)ethyl]-5-(trifluoromethyl)benzamide]",≥ 80,≥ 80,,,
"CC(NC(=O)c1cc(OCC2CC2)nc(C(F)(F)F)c1)c1nccnc1-c1ncccn1 (stereo not shown) [P43, 2-(cyclopropylmethoxy)-N-[1-(3-pyrimidin-2-ylpyrazin-2-yl)ethyl]-6-(trifluoromethyl)pyridine-4-carboxamide]",≥ 80,≥ 80,,,
"CC(NC(=O)c1cc(C2CC2)cc(C(F)(F)F)c1)c1nccnc1-c1ncc(Br)cn1 (stereo not shown) [P58, N-[1-[3-(5-bromopyrimidin-2-yl)pyrazin-2-yl]ethyl]-3-cyclopropyl-5-(trifluoromethyl) benzamide]",≥ 80,≥ 80,≥ 80,≥ 80,
"CC(NC(=O)c1cc(C(F)(F)F)cc(S(=O)(=O)C(F)(F)F)c1)c1nccnc1-c1ccc(Br)cn1 (stereo not shown) [P14, N-[1-[3-(5-bromo-2-pyridyl)pyrazin-2-yl]ethyl]-3-(trifluoromethyl)-5-(trifluoromethylsulfonyl) benzamide]",,,,,≥ 80
"Cc1cnc(-c2nccnc2C(C)NC(=O)c2cc(C3CC3)cc(C(F)(F)F)c2)nc1 (stereo not shown) [P51, 3-cyclopropyl-N-[1-[3-(5-methylpyrimidin-2-yl)pyrazin-2-yl]ethyl]-5-(trifluoromethyl)benzamide]",≥ 80,,≥ 80,,
"CC(NC(=O)c1cc(C(F)(F)F)cc(C(C)(C)C#N)c1)c1nccnc1-c1ccc(Cl)cn1 (stereo not shown) [P8, N-[1-[3-(5-chloro-2-pyridyl)pyrazin-2-yl]ethyl]-3-(1-cyano-1-methyl-ethyl)-5-(trifluoromethyl) benzamide]",≥ 80,≥ 80,≥ 80,≥ 80,
